What was measured:
lean mice = test: Diet induced obesity model, treatment arm TA2 (lean mice, regular chow diet); format: in vivo; conditions: 100 mg/kg ip bid Day 1-28, mean ± SEM
Description: In a diet induced obesity (DIO) model in mice, two treatment arms of mice were tested. In the first treatment arm (TA1), DIO mice in four treatment groups (treated: 25 mg/kg, 50 mg/kg and 100 mg/kg and non-treated vehicle control) were fed a high fat diet. In the second treatment arm (TA2), lean mice in two treatment groups (treated: 100 mg/kg and non-treated vehicle control) were fed a regular chow diet. After 7 days acclimation to the diet, the treated groups in each arm were dosed (0.1 mL, ip, bid) with a test compound from Day 1 to Day 28 of the study. After 7 days acclimation to the diet, the non-treated groups in each arm were dosed (0.1 mL, ip, bid) with vehicle from Day 1 to Day 28 of the study. Body weight was monitored twice per week and on Day 28. After sacrifice, blood glucose, body weight, body mass, serum MCP-1 and insulin levels were also recorded. MCP-1 was measured by ELISA. The statistical analysis for p value was performed using the program Prism (Graphpad, Monrovia, Calif.) with the Student t-test (unpaired). All data are presented as the mean ± standard error of the mean (SEM).

NON (NONcNZO10/LtJ) mice = test: Insulin sensitivity model: insulin tolerance test; format: in vivo; conditions: mean ± SEM
Description: In an insulin sensitivity model in mice, four month old male NON (NONcNZO10/LtJ) mice in four treatment groups (treated: 25 mg/kg, 50 mg/kg and 100 mg/kg and non-treated vehicle control) were fed LabDiet® 5K20 for 28 days. The treated groups were dosed (0.1 mL, ip, bid) with a test compound from Day 1 to Day 28. The non-treated group was dosed (0.1 mL, ip, q.d.) with vehicle from Day 1 to Day 28. Body weight and blood glucose were monitored once per week and an insulin tolerance test was performed by i.p. injection of […] insulin, then fed blood glucose levels were measured at 0, 15, 30, 60, 90, and 120 min after insulin administration. The insulin tolerance test blood glucose levels at the time points the sample were taken after insulin administration are shown in Table 5. Blood glucose levels were measured using a Glucometer. MCP-1 and insulin were measured by ELISA. Plasma glucose and FFA were measured using Weko kits. The statistical analysis for p value was performed using the program Prism (Graphpad, Monrovia, Calif.) with the Student t-test (unpaired). All data are presented as the mean ± standard error of the mean (SEM).

O=C(O)[C@H](C1CCN(C(=O)/C=C/c2cc(F)c(F)c(F)c2)CC1)N1CCC(c2c[nH]c3ccccc23)CC1 [(S)-{[4-(1H-indol-3-yl)-piperidin-1-yl]}-{1-[(2E)-3-(3,4,5-trifluoro-phenyl)-acryloyl]-piperidin-4-yl}-acetic acid]
Body Weight Gain (lean mice): 2.3 ± 1.5 g
Change in Fat Mass (lean mice): 0.6 ± 0.3 g
Change in Lean Mass (lean mice): 3.4 ± 0.8 g
Change in Water (lean mice): 3.1 ± 0.7 g
Food Intake (lean mice): 22.8 ± 1.7 g/7 days
Plasma MCP-1 (lean mice): 646.8 ± 112.5 pg/mL
Blood Glucose (NON (NONcNZO10/LtJ) mice; Day 7, 25 mg/kg ip bid, 0 min after insulin): 333 ± 44 mg/dL
Blood Glucose (NON (NONcNZO10/LtJ) mice; Day 7, 25 mg/kg ip bid, 15 min after insulin): 213 ± 40 mg/dL
Blood Glucose (NON (NONcNZO10/LtJ) mice; Day 7, 25 mg/kg ip bid, 30 min after insulin): 157 ± 27 mg/dL
Blood Glucose (NON (NONcNZO10/LtJ) mice; Day 7, 25 mg/kg ip bid, 60 min after insulin): 146 ± 21 mg/dL
Blood Glucose (NON (NONcNZO10/LtJ) mice; Day 7, 25 mg/kg ip bid, 90 min after insulin): 146 ± 18 mg/dL
Blood Glucose (NON (NONcNZO10/LtJ) mice; Day 7, 25 mg/kg ip bid, 120 min after insulin): 164 ± 23 mg/dL
Blood Glucose (NON (NONcNZO10/LtJ) mice; Day 7, 50 mg/kg ip bid, 0 min after insulin): 325 ± 54 mg/dL
Blood Glucose (NON (NONcNZO10/LtJ) mice; Day 7, 50 mg/kg ip bid, 15 min after insulin): 213 ± 51 mg/dL
Blood Glucose (NON (NONcNZO10/LtJ) mice; Day 7, 50 mg/kg ip bid, 30 min after insulin): 136 ± 20 mg/dL
Blood Glucose (NON (NONcNZO10/LtJ) mice; Day 7, 50 mg/kg ip bid, 60 min after insulin): 115 ± 13 mg/dL
Blood Glucose (NON (NONcNZO10/LtJ) mice; Day 7, 50 mg/kg ip bid, 90 min after insulin): 115 ± 8 mg/dL
Blood Glucose (NON (NONcNZO10/LtJ) mice; Day 7, 50 mg/kg ip bid, 120 min after insulin): 142 ± 8 mg/dL
Blood Glucose (NON (NONcNZO10/LtJ) mice; Day 7, 100 mg/kg ip bid, 0 min after insulin): 230 ± 22 mg/dL
Blood Glucose (NON (NONcNZO10/LtJ) mice; Day 7, 100 mg/kg ip bid, 15 min after insulin): 141 ± 16 mg/dL
Blood Glucose (NON (NONcNZO10/LtJ) mice; Day 7, 100 mg/kg ip bid, 30 min after insulin): 105 ± 9 mg/dL
Blood Glucose (NON (NONcNZO10/LtJ) mice; Day 7, 100 mg/kg ip bid, 60 min after insulin): 82 ± 8 mg/dL
Blood Glucose (NON (NONcNZO10/LtJ) mice; Day 7, 100 mg/kg ip bid, 90 min after insulin): 83 ± 7 mg/dL
Blood Glucose (NON (NONcNZO10/LtJ) mice; Day 7, 100 mg/kg ip bid, 120 min after insulin): 98 ± 8 mg/dL
Blood Glucose (NON (NONcNZO10/LtJ) mice; Day 21, 25 mg/kg ip bid, 0 min after insulin): 465 ± 34 mg/dL
Blood Glucose (NON (NONcNZO10/LtJ) mice; Day 21, 25 mg/kg ip bid, 15 min after insulin): 367 ± 51 mg/dL
Blood Glucose (NON (NONcNZO10/LtJ) mice; Day 21, 25 mg/kg ip bid, 30 min after insulin): 247 ± 53 mg/dL
Blood Glucose (NON (NONcNZO10/LtJ) mice; Day 21, 25 mg/kg ip bid, 60 min after insulin): 209 ± 56 mg/dL
Blood Glucose (NON (NONcNZO10/LtJ) mice; Day 21, 25 mg/kg ip bid, 90 min after insulin): 198 ± 51 mg/dL
Blood Glucose (NON (NONcNZO10/LtJ) mice; Day 21, 25 mg/kg ip bid, 120 min after insulin): 237 ± 43 mg/dL
Blood Glucose (NON (NONcNZO10/LtJ) mice; Day 21, 50 mg/kg ip bid, 0 min after insulin): 434 ± 71 mg/dL
Blood Glucose (NON (NONcNZO10/LtJ) mice; Day 21, 50 mg/kg ip bid, 15 min after insulin): 303 ± 56 mg/dL
Blood Glucose (NON (NONcNZO10/LtJ) mice; Day 21, 50 mg/kg ip bid, 30 min after insulin): 186 ± 32 mg/dL
Blood Glucose (NON (NONcNZO10/LtJ) mice; Day 21, 50 mg/kg ip bid, 60 min after insulin): 162 ± 37 mg/dL
Blood Glucose (NON (NONcNZO10/LtJ) mice; Day 21, 50 mg/kg ip bid, 90 min after insulin): 168 ± 47 mg/dL
Blood Glucose (NON (NONcNZO10/LtJ) mice; Day 21, 50 mg/kg ip bid, 120 min after insulin): 214 ± 49 mg/dL
Blood Glucose (NON (NONcNZO10/LtJ) mice; Day 21, 100 mg/kg ip bid, 0 min after insulin): 332 ± 38 mg/dL
Blood Glucose (NON (NONcNZO10/LtJ) mice; Day 21, 100 mg/kg ip bid, 15 min after insulin): 247 ± 28 mg/dL
Blood Glucose (NON (NONcNZO10/LtJ) mice; Day 21, 100 mg/kg ip bid, 30 min after insulin): 152 ± 15 mg/dL
Blood Glucose (NON (NONcNZO10/LtJ) mice; Day 21, 100 mg/kg ip bid, 60 min after insulin): 144 ± 21 mg/dL
Blood Glucose (NON (NONcNZO10/LtJ) mice; Day 21, 100 mg/kg ip bid, 90 min after insulin): 158 ± 28 mg/dL
Blood Glucose (NON (NONcNZO10/LtJ) mice; Day 21, 100 mg/kg ip bid, 120 min after insulin): 228 ± 43 mg/dL
